From PMC9416150, “Development and Validation of [^3H]OF-NB1 for Preclinical Assessment of GluN1/2B Candidate Drugs” (Pharmaceuticals, 2022)
Like-named read-outs stand apart in the source and are kept apart here. Values belong to the molecule of their own block, whether it stands above or below them.

How the values were obtained:
GluN1/2B [1] = conditions: cited from earlier work
σ1R [2] = conditions: cited from earlier work
[3] = parameters: method as in PMID 35710735; conditions: n = 4; cited from earlier work
GluN1/2B [4] = biological target: T1, GluN1/2B (Rattus norvegicus, UniProt P35439+Q00960); test: In vitro GluN1/2B competitive binding assay with [3H]OF-NB1; conditions: radioligand [3H]OF-NB1; Wistar rat brain homogenates; 25 °C
T1 construct: from tissue; host or cells: Wistar rat whole brain homogenate
T1 sequence (Q00960 27-1482, other chains not shown): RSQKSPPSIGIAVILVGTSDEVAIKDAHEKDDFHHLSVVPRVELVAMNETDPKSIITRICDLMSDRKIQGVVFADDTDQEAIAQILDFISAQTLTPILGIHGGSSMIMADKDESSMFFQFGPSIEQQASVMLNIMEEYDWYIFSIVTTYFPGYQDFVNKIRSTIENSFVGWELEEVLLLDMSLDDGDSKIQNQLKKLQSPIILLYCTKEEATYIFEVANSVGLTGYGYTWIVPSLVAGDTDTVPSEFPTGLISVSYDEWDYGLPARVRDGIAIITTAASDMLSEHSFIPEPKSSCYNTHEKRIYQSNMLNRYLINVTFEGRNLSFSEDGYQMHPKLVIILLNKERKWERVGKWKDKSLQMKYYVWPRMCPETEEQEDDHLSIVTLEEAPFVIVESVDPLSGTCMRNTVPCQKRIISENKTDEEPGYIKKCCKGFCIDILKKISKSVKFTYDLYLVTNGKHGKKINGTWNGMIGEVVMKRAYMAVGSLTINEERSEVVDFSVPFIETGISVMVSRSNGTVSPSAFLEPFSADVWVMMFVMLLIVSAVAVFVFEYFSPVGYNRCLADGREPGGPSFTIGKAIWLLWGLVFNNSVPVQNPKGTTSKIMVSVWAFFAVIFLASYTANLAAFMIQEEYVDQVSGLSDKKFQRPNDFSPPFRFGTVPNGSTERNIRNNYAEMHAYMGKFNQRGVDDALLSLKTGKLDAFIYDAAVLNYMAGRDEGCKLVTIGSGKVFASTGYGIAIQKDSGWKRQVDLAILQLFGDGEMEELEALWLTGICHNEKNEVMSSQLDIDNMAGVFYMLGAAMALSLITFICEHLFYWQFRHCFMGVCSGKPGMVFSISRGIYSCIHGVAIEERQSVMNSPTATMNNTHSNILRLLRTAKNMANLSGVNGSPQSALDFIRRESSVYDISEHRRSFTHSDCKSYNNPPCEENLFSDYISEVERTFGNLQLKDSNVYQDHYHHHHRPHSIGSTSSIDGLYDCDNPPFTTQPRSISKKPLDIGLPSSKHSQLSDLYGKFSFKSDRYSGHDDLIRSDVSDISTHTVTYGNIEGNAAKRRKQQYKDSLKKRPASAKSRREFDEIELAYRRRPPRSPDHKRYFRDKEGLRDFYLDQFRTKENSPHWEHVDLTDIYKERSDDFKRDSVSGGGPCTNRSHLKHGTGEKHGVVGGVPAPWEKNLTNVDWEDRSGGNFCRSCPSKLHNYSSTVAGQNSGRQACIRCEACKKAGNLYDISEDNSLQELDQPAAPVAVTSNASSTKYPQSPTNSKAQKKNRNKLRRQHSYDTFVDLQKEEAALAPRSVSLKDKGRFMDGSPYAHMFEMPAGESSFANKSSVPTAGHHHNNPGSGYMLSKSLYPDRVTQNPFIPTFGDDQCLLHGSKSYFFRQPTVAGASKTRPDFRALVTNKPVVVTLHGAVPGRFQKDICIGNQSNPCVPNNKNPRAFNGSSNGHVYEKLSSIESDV
Experimental: (§1) Competitive binding assays were performed as previously reported. […] A dilution series of the test ligands was prepared ranging from 30 µM to 300 pM. […] Each measurement vial contained 0.5 mg/mL of brain homogenate proteins, 20 µL of cold ligand, 10 µL of radioligand and was diluted to 200 µL with HEPES buffer. The vials were incubated at 25 °C and 110 rpm for 1 h. The mixtures were quenched with buffer and filtered through Whatman® GF/C 25 mm filters soaked with 0.05% PEI solution. Filters were washed twice with cold buffer and placed in scintillation vials. Scintillation vials were filled with 2 mL Ultima Gold^TM LSC cocktail and measured in a Beckmann LS6500 liquid scintillator counter.

GluN1/2B [5] = biological target: T1, GluN1/2B; test: In vitro GluN1/2B competitive binding assay with [3H]ifenprodil; conditions: radioligand [3H]ifenprodil; Wistar rat brain homogenates; 25 °C
Experimental: as §1

σ2R = biological target: σ2R; parameters: method as in earlier work; conditions: ref 18 (Hashimoto 2015); cited from earlier work
σ1R [6] = biological target: T2, σ1R (Rattus norvegicus, UniProt Q9R0C9); conditions: Wistar rats; for %RO calculated / %RO predicted: σ1R occupancy, [18F]fluspidine
T2 sequence (Q9R0C9 whole entry): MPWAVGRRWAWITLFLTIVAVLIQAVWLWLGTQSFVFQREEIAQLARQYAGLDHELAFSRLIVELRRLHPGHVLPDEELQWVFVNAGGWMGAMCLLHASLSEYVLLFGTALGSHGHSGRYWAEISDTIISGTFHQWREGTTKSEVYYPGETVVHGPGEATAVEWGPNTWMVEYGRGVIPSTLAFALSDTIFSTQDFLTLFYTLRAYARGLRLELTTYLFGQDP
Experimental: A series of doses were investigated, ranging from 0.05–15 mg/kg. […] There have been efforts to develop ligands with dual GluN1/2B and σ1R activity. Nonetheless, for the purpose of developing selective GluN1/2B ligands, one has to consider fundamentally reformulating the development strategy.
All non-aqueous reactions were performed under N2 atmosphere using flame-dried glassware and standard syringe/septa methods unless stated otherwise. Reactions were magnetically stirred and further monitored by thin layer chromatography (TLC) performed on Merck TLC aluminum sheets (silica gel 60 F254). TLC spots were visualized using UV light (λ = 254 nm) or through staining with KMnO4 solution. Chromatographic purification of products was performed using SiliaFlash P60 silica gel (Silicycle) for preparative column chromatography with a particle size of 40–63 μm (230–400 mesh). Reactions at −78 °C were cooled in a dry ice/acetone bath and reactions at 0 °C were cooled in an ice/water bath. Chemicals were purchased from ABCR, Acros Organics, Amatek Chemical, Fluorochem, Merck, Perkin Elmer and Sigma Aldrich and used without further purification. Solvents for TLC, extraction and flash column chromatography were of technical grade. Extra dry solvents for all non-aqueous reactions were supplied by Acros Organics (puriss., dried over molecular sieves, water content <0.005%). Deuterated solvents (D, 99.9%) were purchased from Cambridge Isotope Laboratories, Inc. NMR spectra of compounds 3, 7 and 8 are presented in the Supplementary Material (Section S1). Tritium labeling was performed by RC Tritec AG (Teufen, Switzerland). […] Positron emission tomography (PET) imaging was performed in Wistar rats according to a previously published procedure.
Standard uptake values (SUVs) are averaged from 0–90 min.

σR = conditions: read-out: Ki (σ1R); published value using the σR ligand [3H]3-PPP; cited from earlier work
GluN1/2B [7] = conditions: cited from earlier work; remark: listed apart in the source
σ1R [8] = biological target: T2, σ1R; test: In vitro σ1R competitive binding assay with (+)-[3H]pentazocine; parameters: from tissue; host or cells: brain of living Wistar rats (in vivo PET); conditions: radioligand (+)-[3H]pentazocine; Wistar rat brain homogenates; 37 °C
Description: The mixtures were quenched with buffer and filtered through Whatman® GF/C 25 mm filters soaked with 0.05% PEI solution.

Compound: Oc1ccc2c(c1)CCN(CCCCc1ccccc1F)CC2O (stereo not shown) [OF-NB1]
Ki (GluN1/2B [1]; ref 22 (Ahmed et al. 2021)): 10.4 ± 4.7 nM | Ki (σ1R [2]; ref 22 (Ahmed et al. 2021)): 410 nM | log D7.4 [3]: 2.05 ± 0.08

Ki (GluN1/2B [4]): > 100000 nM | Ki (GluN1/2B [5]): 51 ± 13 nM
Compound: COc1ccc(CCN2CCN(CCCc3ccccc3)CC2)cc1OC [SA-4503]

Compound: CC(C(O)c1ccc(O)cc1)N1CCC(Cc2ccccc2)CC1 (stereo not shown) [[^3H]Ifenprodil]
Ki (GluN1/2B [1]; ref 17 (Alarcon et al. 2008)): 11 nM | Ki (σ1R [2]; ref 18 (Hashimoto 2015)): 13 nM | Ki (σ2R): 1.89 nM

Compound: C[C@@H]([C@@H](O)c1ccc(O)cc1)N1CCC(O)(c2ccccc2)CC1 [CP-101,606]
D50 (σ1R) (σ1R [6]; administered dose occupying 50% of σ1Rs, [18F]fluspidine PET): 4.9 µmol/kg | blockade of [18F]fluspidine brain uptake (σ1R [6]; doses 0.05–15 mg/kg): dose-dependent blockade | %RO calculated (σ1R [6]; dose 0.05 mg/kg): 3.72% | %RO predicted (σ1R [6]; dose 0.05 mg/kg): 2.43% | %RO calculated (σ1R [6]; dose 3 mg/kg): 61.9% | %RO predicted (σ1R [6]; dose 3 mg/kg): 59.2% | %RO calculated (σ1R [6]; dose 7 mg/kg): 71.2% | %RO predicted (σ1R [6]; dose 7 mg/kg): 77.1% | %RO calculated (σ1R [6]; dose 15 mg/kg): 91.2% | %RO predicted (σ1R [6]; dose 15 mg/kg): 87.8% | Ki (GluN1/2B [1]; reported literature value): 16 nM | Ki (σR): 60 nM | D50 (GluN1/2B) (GluN1/2B [7]): 8.1 µmol/kg | Ki (σ1R [8]): 94 ± 6 nM
